Entries after “also recorded” stand apart in the source; their conditions may differ.
What was measured:
[1] = system: DNA methyltransferase (DNMT); assay: DNA methyltransferase (DNMT) activity assay in small molecule treated SiPS; format: cell-based, mouse
Method: (§1) In order to direct SiPS towards cardiac lineage cells, they were treated with a small molecule (Isoxazole, 20 uM, Sigma-Aldrich or ISX-9, StemCell Technologies, Inc Vancouver, BC) for five days and analyzed for DNA methyltransferase (Dnmt) activity, cell proliferation, and cardiac gene expression.
Nuclear extracts were isolated using the NE-PER Nuclear and Cytoplasmic Extraction Kit (Thermo Scientific, IL USA). Total DNMT activity was determined using an EpiQuik DNA methyltransferase activity assay kit (Epigentek, Brooklyn, N.Y.) per manufacturer's protocol. Enzyme activity for samples and controls was measured on a microplate reader (Hidex Chameleon, Finland) at 450 nm and DNMT activity (OD/h/ml) was calculated according to the formula: (Sample OD−blank OD)/(sample volume)×1000.

SiPS = assay: Cell proliferation assay (MTS); format: cell-based, mouse; conditions: treated vs non treated SiPS, p<0.01; listed as small molecule
Method: as §1
The cell proliferation assay was performed with the use of the MTS [3-(4,5-dimethylthiazol-2-yl)-5-(3-carboxymethoxyphenyl)-2-(4-sulfophenyl)-2H-tetrazolium] assay according to the manufacturer's recommendations (Promega). The plates were read at 490 nm using an automated ELISA plate-reader for the quantity of formazan product which was directly proportional to the number of living cells in culture.

IPS cells [2] = assay: Oxidant induced apoptosis, TUNEL assay; format: cell-based, mouse; conditions: pretreated IPS vs non-treated IPS, listed as small molecule
Method: In FIG. 3A, apoptosis was determined by TUNEL assay. […] All values were expressed as mean±SEM, * p<0.05 vs. control.
as §1

IPS cells [3] = assay: Cytochrome c translocation to cytoplasm after H2O2, immunostaining; format: cell-based, mouse; conditions: after exposure to H2O2 (100 μmol), vs non-treated IPS cells
Method: Immunostaining of cytochrome c in non-treated and small molecule, isoxazole or isoxazole like compounds treated IPS cells after exposure to H2O2 ([…]), (merged images with DAPI), (original magnifications; 200×).
as §1

Nkx-2.5 = assay: Cardiac gene expression, RT-PCR and immunostaining; format: cell-based, mouse
Method: as §1
Total RNA from small molecule treated and non-treated SiPS cells was isolated using RNeasy mini kit (Qiagen, Maryland, USA) and Omniscript Reverse Transcription kit (Qiagen, Maryland, USA) was used for the respective cDNA synthesis per manufacturer's instructions. […] PCR conditions included initial denaturation at 95° C. for 4 minutes, 32 cycles of denaturation at 95° C. for 1 minute, annealing at 55° C. for 1 minute, extension at 72° C. for 1 minute and final extension at 72° C. for 7 minutes. The PCR products were separated on 1.5% agarose gel, stained with ethidium bromide and visualized and photographed on a UV transluminator (Bio-Rad, USA).
For immunocytochemistry, differentiated colonies of SiPS were immunostained with respective specific primary antibodies (anti-Oct3/4, anti-Sox2, anti-Nanog antibodies, all at 1:100 concentration; Cell Signaling, Danvers, USA). […] The primary antibody-antigen reaction was detected with fluorescently conjugated specific secondary antibodies. […] Fluorescence signals were observed and photographed using fluorescence microscopy (Olympus; Tokyo, Japan).

IPS cells [4] = assay: Affymetrix array-based gene expression profiling; format: cell-based, mouse
Method: as §1
(§2) Approximately 60% treated iPS cells were positive for Nkx-2.5. Given that posttranscriptional regulation is crucial for gene expression and cell survival molecular phenotypic analysis was performed, Affymetrix array-based gene expression profiling further confirmed 2-3 folds downregulation of Dnmt1, Dnmt3b and Max gene associated protein which were associated with global DNA hypomethylation and myc dependent cell transformation (see Table 1). Additionally, there was a 2-3 fold concomitant upregulation in the CCL7, CXCR2, CXCR5, integral membrane protein 2A, and ephrin A3. (FIG. 6).
Affymetrix array-based gene expression profiling further confirmed 2-3 folds downregulation of Dnmt1, Dnmt3b and Max gene associated protein which were associated with global DNA hypomethylation and myc dependent cell transformation. In addition, there was 2-3 folds concomitant upregulation of CCL7, CXCR2, CXCR5, integral membrane protein 2A, and EphrinA3.

IPS cells [5] = assay: miR microarray analysis; format: cell-based, mouse; conditions: treated vs non-treated IPS cells
Method: FIGS. 7A-7E show miR-microarray analysis of small molecule, isoxazole like compounds treated IPS vs non-treated IPS cells. Microarray analysis showing miR expression profile in non-treated IPS cells was quite different from small molecule treated IPS cells.
as §2

Gαi = assay: Western blot of Gα protein (GPCR signaling); format: cell-based, mouse
[6] = system: Human iPSC line (ACS-1021); assay: Generation of cardiac progenitor cells from human iPS cells and differentiation into three lineages; format: cell-based
[7] = system: Skeletal myoblasts (SMs) from Oct3/4-GFP+ transgenic mouse; assay: Reprogramming of skeletal myoblasts to iPS cells; format: cell-based; conditions: 500 μM in 0.5% DMSO, 5-days; two weeks later
Method: Skeletal myoblasts (SMs) purified from young male Oct3/4-GFP^+ transgenic mouse were treated with DNA methyltransferase inhibitor 500 μM RG-108 in 0.5% DMSO in knock out DMEM for 5-days. […] Although the research described herein was conducted in a murine model, the use of the same markers and agents will provide similar if not identical results in human cells and tissue.

[8] = Affymetrix array, treated vs non-treated iPS cells
[9] = IPs + Small Molecule, regulation down
[10] = IPs + Small Molecule, regulation up
[11] = basal differentiation conditions
[12] = hiPSC, 7 day small molecule treatment

O=C(NC1CC1)c1cc(-c2cccs2)on1 [ISX-9, N-cyclopropyl-5-thiophen-2-yl-1,2-oxazole-3-carboxamide]
DNMT activity ([1]; SiPS, 20 uM, five days): completely abolished | reduction in global DNA methylation ([1]; SiPS, 20 uM, five days, FIG. 2): 95% | inhibition of DNA methyltransferase activity ([1]; treated IPS cells vs nontreated IPS cells, FIG. 2): 95% | proliferative activity / mitogenic response (SiPS): increased proliferative activity; also recorded: increase in mitogenic response | apoptosis (TUNEL positive cells) (IPS cells [2]): tolerant to apoptosis; also recorded: reduced the apoptosis; also recorded: Fewer TUNEL positive cells/microscopic field | cytochrome c translocation to cytoplasm (IPS cells [3]): significant decrease | treated iPS cells positive for Nkx-2.5 (Nkx-2.5; SiPS, 20 uM, five days): Approximately 60% | Nkx-2.5 expression, RT-PCR (Nkx-2.5; treated vs non treated IPS, p<0.01): significant upregulation | downregulation of Dnmt1, Dnmt3b and Max gene associated protein (IPS cells [4]; [8]): 2-3 folds | upregulation of CCL7, CXCL2, CXCL5, integral membrane protein 2A and ephrin A3 (IPS cells [4]; [8]): 2-3 fold | Fold change Dnmt1, DNA methyltransferase (IPS cells [4]; [9]): −1.612 fold | Fold change Dnmt3b, DNA methyltransferase 3B (IPS cells [4]; [9]): −1.282 fold | Fold change Mga, MAX gene associated protein (IPS cells [4]; [9]): −1.104 fold | Fold change Ccl7, chemokine (C-C motif) ligand 7 (IPS cells [4]; [10]): 3.316 fold | Fold change Cox6b1, cytochrome c oxidase subunit VIb polypeptide 1 (IPS cells [4]; [10]): 2.546 fold | Fold change Cox16, COX16 cytochrome c oxidase assembly homolog (IPS cells [4]; [10]): 3.006 fold | Fold change Cxcl2, chemokine (C-X-C motif) ligand 2 (IPS cells [4]; [10]): 2.732 fold | Fold change Cxcl5, chemokine (C-X-C motif) ligand 5 (IPS cells [4]; [10]): 2.137 fold | Fold change Efna3, ephrin A3 (IPS cells [4]; [10]): 2.088 fold | Fold change Itm2a, integral membrane protein 2A (IPS cells [4]; [10]): 2.255 fold | Fold change Itm2b, integral membrane protein 2B (IPS cells [4]; [10]): 2.18 fold | Fold change Uqcr10, ubiquinol-cytochrome c reductase complex III subunit X (IPS cells [4]; [10]): 2.298 fold | cardiac specific miR-133, miR-762 expression (IPS cells [5]): upregulation | pluripotency associated miR-290 cluster, miR-574-5p and let-7 family expression (IPS cells [5]): down regulation | Gαi / Gα (pan) protein level (Gαi; Western blot, treated vs untreated IPS cells): significant upregulation | expression of CPC markers including Nkx2.5 and GATA4, RT-PCR and immunostaining ([6]; 20 μM, 7 days, RPMI/B27 minus insulin): observed | spontaneous beating (cardiomyocyte differentiation) ([6]; 7 days treatment, then RPMI/B27 with insulin 7-10 days, end of 20 days): all the cells began spontaneous beating | percentage of CMs (TnT+) from Nkx2.5+ cells [6, 11]: 95.2±2.1% | percentage of ECs (CD31+) from Nkx2.5+ cells [6, 11]: 90.3±2.5% | percentage of SMCs (α-SMA+) from Nkx2.5+ cells [6, 11]: 92.3±1.8% | purity of Nkx2.5 positive cells by FACS [6, 12]: 96.5±2.5% | transcription factors (Nkx2.5, GATA4 and ISL-1), immunofluorescence staining [6, 12]: highly expressed | α-SMA and calponin expression, immunostaining ([6]; induced CPC in DMEM-F12 with TGFβ and PDGFBB, 10 days): observed | endothelial cell markers CD31 and VE-cadherin ([6]; induced CPC in EGM-2 medium, 10 days): expressed | converting iPSC into cardiac progenitors including endothelial/vascular progenitors and smooth muscle cells ([6]; overall conclusion): very effective

O=C(O)C(Cc1c[nH]c2ccccc12)N1C(=O)c2ccccc2C1=O [RG-108, N-phthalyl-L-tryptopha]
generation of iPS cell colonies [7]: GFP^+ colonies of SM derived iPS cells (SiPS)

pertussis toxin
effect on small molecule induced Gα (pan) upregulation (Gαi; concomitant use with small molecule in IPS cells): blocked

Reference: US10443044B2, “Generating cardiac progenitor cells from pluripotent stem cells using isoxazole or isoxazole like compounds” (IPS Heart, priority 2014, dated 2019)
